According to a flash point compilation (Sun et al. 2020):

flash point [°C] | SMILES
127.00 | CC(CO)CO [2-methylpropane-1,3-diol]
120.00 | CC(C)C(=O)O.CC(C)C(O)C(C)(C)CO (centres undefined) [2-methylpropanoic acid;2,2,4-trimethylpentane-1,3-diol]
56.00 | CC(C)C(=O)O [2-methylpropanoic acid]
49.00 | C=C(C)C(=O)OCC(C)C [2-methylpropyl 2-methylprop-2-enoate]
33.00 | CC(C)OCCO [2-propan-2-yloxyethanol]
-28.00 | CC(C)OC(C)C [2-propan-2-yloxypropane]
104.00 | CC(C)c1ccccc1O [2-propan-2-ylphenol]
49.00 | CCCOCCO [2-propoxyethanol]
111.00 | CCCC(CCC)C(=O)O [2-propylpentanoic acid]
74.00 | OCCS [2-sulfanylethanol]
171.00 | CC(C)(C)c1cc(O)ccc1O [2-tert-butylbenzene-1,4-diol]
129.00 | O=C1CCCc2ccccc21 [3,4-dihydro-2H-naphthalen-1-one]
130.00 | O=C1CCc2ccccc2O1 [3,4-dihydrochromen-2-one]
84.00 | CC1=CC(=O)CC(C)(C)C1 [3,5,5-trimethylcyclohex-2-en-1-one]
80.00 | Cc1cc(C)cc(O)c1 [3,5-dimethylphenol]
74.00 | CC(C)=CCCC(C)CC=O (centres undefined) [3,7-dimethyloct-6-enal]
94.00 | C=CC(C)(CCC=C(C)C)OC(C)=O (centres undefined) [3,7-dimethylocta-1,6-dien-3-yl acetate]
101.00 | CCC1CCC(CCC(=O)O)C1 (centres undefined) [3-(3-ethylcyclopentyl)propanoic acid]
110.00 | CC1(C)CC(N)CC(C)(CN)C1 (centres undefined) [3-(aminomethyl)-3,5,5-trimethylcyclohexan-1-amine]
95.00 | CN1CCC[C@H]1c1cccnc1 [3-[(2S)-1-methylpyrrolidin-2-yl]pyridine]
79.00 | NCCCO [3-aminopropan-1-ol]
54.00 | CCOCCCO [3-ethoxypropan-1-ol]
41.00 | CC(=O)C(C)O (centres undefined) [3-hydroxybutan-2-one]
66.00 | CC(O)CC=O (centres undefined) [3-hydroxybutanal]
97.00 | C=CC(=O)OCCCO [3-hydroxypropyl prop-2-enoate]

flash point [°C] | SMILES
107.00 | CCC=CCC1=C(C)CCC1=O [3-methyl-2-pent-2-enylcyclopent-2-en-1-one]
61.00 | CSCCC=O [3-methylsulfanylpropanal]
163.00 | CC(=O)CC(=O)Nc1ccccc1 [3-oxo-N-phenylbutanamide]
200.00 | S=c1[nH]c2ccccc2s1 [3H-1,3-benzothiazole-2-thione]
157.00 | O=C1OC(=O)C2CC=CCC12 (centres undefined) [3a,4,7,7a-tetrahydro-2-benzofuran-1,3-dione]
118.00 | CC(=O)C=CC1C(C)=CCCC1(C)C (centres undefined) [4-(2,6,6-trimethylcyclohex-2-en-1-yl)but-3-en-2-one]
93.00 | CC1(N)CCC(C(C)(C)N)CC1 (centres undefined) [4-(2-aminopropan-2-yl)-1-methylcyclohexan-1-amine]
121.00 | C1CN(SSN2CCOCC2)CCO1 [4-(morpholin-4-yldisulfanyl)morpholine]
193.00 | Nc1ccc(Nc2ccccc2)cc1 [4-N-phenylbenzene-1,4-diamine]
104.00 | CC/C(=C(/CC)c1ccc(O)cc1)c1ccc(O)cc1 [4-[(E)-4-(4-hydroxyphenyl)hex-3-en-3-yl]phenol]
153.00 | COc1cc(C=O)ccc1O [4-hydroxy-3-methoxybenzaldehyde]
132.00 | COc1ccc(O)cc1 [4-methoxyphenol]
85.00 | Cc1ccc(C#N)cc1 [4-methylbenzonitrile]
70.00 | CC1CCC(O)CC1 (centres undefined) [4-methylcyclohexan-1-ol]
-34.00 | C=CC=C(C)C [4-methylpenta-1,3-diene]
41.00 | CC(C)CC(C)O (centres undefined) [4-methylpentan-2-ol]
68.00 | CCc1ccc(C)nc1 [5-ethyl-2-methylpyridine]
26.00 | CC=C1CC2C=CC1C2 (centres undefined) [5-ethylidenebicyclo[2.2.1]hept-2-ene]
36.00 | CC(=O)CCC(C)C [5-methylhexan-2-one]
31.00 | C=C1CCC2CC1C2(C)C (centres undefined) [6,6-dimethyl-2-methylidenebicyclo[3.1.1]heptane]
107.00 | CCOc1ccc2c(c1)C(C)=CC(C)(C)N2 [6-ethoxy-2,2,4-trimethyl-1H-quinoline]
130.00 | Cc1ccc2oc(=O)ccc2c1 [6-methylchromen-2-one]
69.00 | CC(C)CCCCCOC(=O)COc1cc(Cl)c(Cl)cc1Cl [6-methylheptyl 2-(2,4,5-trichlorophenoxy)acetate]
86.00 | Cc1c2ccccc2c(C)c2c1ccc1ccccc12 [7,12-dimethylbenzo[a]anthracene]
110.00 | Cc1ccc2cccnc2c1 [7-methylquinoline]

SMILES | flash point [°C]
CC(C)CON=O [2-methylpropyl nitrite] | -23.00
O=[N+]([O-])c1ccccc1O [2-nitrophenol] | 108.00
CC(C)[N+](=O)[O-] [2-nitropropane] | 24.00
O=C(O)Cc1ccccc1 [2-phenylacetic acid] | 132.00
Oc1ccccc1-c1ccccc1 [2-phenylphenol] | 124.00
CC(=O)C(C)(C)C [3,3-dimethylbutan-2-one] | 5.00
Nc1ccc(Cl)c(Cl)c1 [3,4-dichloroaniline] | 166.00
N#CCCNCCC#N [3-(2-cyanoethylamino)propanenitrile] | 110.00
CN(C)CCC#N [3-(dimethylamino)propanenitrile] | 64.00
C1CC2OC2CC1C1CO1 (centres undefined) [3-(oxiran-2-yl)-7-oxabicyclo[4.1.0]heptane] | 110.00
Nc1cccc(C(F)(F)F)c1 [3-(trifluoromethyl)aniline] | 85.00
C=CCBr [3-bromoprop-1-ene] | -2.00
C#CCBr [3-bromoprop-1-yne] | 10.00
Cc1ccc(N)cc1Cl [3-chloro-4-methylaniline] | 100.00
Nc1cccc(Cl)c1 [3-chloroaniline] | 124.00
C=CCCl [3-chloroprop-1-ene] | -32.00
N#CCCCl [3-chloropropanenitrile] | 76.00
C=CCN=C=S [3-isothiocyanatoprop-1-ene] | 46.00
Cc1cccc(N)c1 [3-methylaniline] | 86.00
O=C1OC(=O)c2c(Cl)c(Cl)c(Cl)c(Cl)c21 [4,5,6,7-tetrachloro-2-benzofuran-1,3-dione] | 362.00
CCC(C)(C)c1ccc(O)cc1 [4-(2-methylbutan-2-yl)phenol] | 111.00
Cc1cc(-c2ccc(N)c(C)c2)ccc1N [4-(4-amino-3-methylphenyl)-2-methylaniline] | 244.00

SMILES | flash point [°C]
CN(C)c1ccc(N)cc1 [4-N,4-N-dimethylbenzene-1,4-diamine] | 91.00
CC(C)CC(C)Nc1ccc(Nc2ccccc2)cc1 (centres undefined) [4-N-(4-methylpentan-2-yl)-1-N-phenylbenzene-1,4-diamine] | 204.00
N=C(N)c1ccc(OCCCCCOc2ccc(C(=N)N)cc2)cc1 [4-[5-(4-carbamimidoylphenoxy)pentoxy]benzenecarboximidamide] | 103.00
Nc1ccc(Cc2ccc(N)c(Cl)c2)cc1Cl [4-[(4-amino-3-chlorophenyl)methyl]-2-chloroaniline] | 113.00
CN(C)c1ccc(Cc2ccc(N(C)C)cc2)cc1 [4-[[4-(dimethylamino)phenyl]methyl]-N,N-dimethylaniline] | 211.00
Cc1cc(Cl)ccc1N [4-chloro-2-methylaniline] | 160.00
Cc1cc(O)ccc1Cl [4-chloro-3-methylphenol] | 110.00
Nc1ccc(Cl)cc1 [4-chloroaniline] | 113.00
C=CC1CC=CCC1 (centres undefined) [4-ethenylcyclohexene] | 16.00
CCN1CCOCC1 [4-ethylmorpholine] | 28.00
CC1COC(=O)O1 (centres undefined) [4-methyl-1,3-dioxolan-2-one] | 116.00
Cc1ccc(N)c([N+](=O)[O-])c1 [4-methyl-2-nitroaniline] | 157.00
Cc1ccc(N)cc1[N+](=O)[O-] [4-methyl-3-nitroaniline] | 157.00
Cc1ccc(N)cc1 [4-methylaniline] | 87.00
C=C1CC(=O)O1 [4-methylideneoxetan-2-one] | 34.00
CC(=O)C=C(C)C [4-methylpent-3-en-2-one] | 23.00
CC(=O)CC(C)C [4-methylpentan-2-one] | 23.00
CCCCCCCCc1ccc(O)cc1 [4-octylphenol] | 113.00
CCC1(c2ccccc2)C(=O)NC(=O)NC1=O [5-ethyl-5-phenyl-1,3-diazinane-2,4,6-trione] | 174.00
Cc1cnc[nH]1 [5-methyl-1H-imidazole] | 157.00
C=CCc1ccc2c(c1)OCO2 [5-prop-2-enyl-1,3-benzodioxole] | 98.00
CC1=C(C(=O)Nc2ccccc2)SCCO1 [6-methyl-N-phenyl-2,3-dihydro-1,4-oxathiine-5-carboxamide] | 203.00
